Experimental findings from patent US9815796B2 (Merck Sharp & Dohme Corp., priority 2013, dated 2017) are described below.

For the assay, the target named is human PDE2A1 (Homo sapiens (Human), UniProt O00408). The assay is described as follows: IMAP FP PDE selectivity panel, human PDE2A1. In kind it is biochemical. Conditions: Human PDE2, Lab B; read-out: Human PDE2 Ki (nM) - Lab B. The procedure: Selectivity for PDE2, as compared to other PDE families, was assessed using the IMAP® technology. Human PDE 10A2 enzyme was prepared from cytosolic fractions of transiently transfected HEK cells. All other PDE's were GST Tag human enzyme expressed in insect cells and were obtained from BPS Bioscience (San Diego, Calif.): PDE1A (Cat#60010), human PDE2A1 (Cat#60020), PDE3A (Cat#60030), PDE4A1A (Cat#60040), PDE5A1 (Cat#60050), PDE6C (Cat#60060), PDE7A (Cat#60070), PDE8A1 (Cat#60080), PDE9A2 (Cat#60090), PDE11A4 (Cat#60110).
Assays for PDE 1 through 11 were performed in parallel at room temperature in 384-well microtiter plates with an incubation volume of 20.2 μL. Solutions of test compounds were prepared in DMSO and serially diluted with DMSO to yield 30 μL of each of ten solutions differing by 3-fold in concentration, at 32 serial dilutions per plate. […] A Labcyte POD 810 (Labcyte, Sunnyvale, Calif.) was used to dispense 200 nL from each well of the titration plate to make eleven copies of the assay plate for each titration, one copy for each PDE enzyme. A solution of each enzyme (dilution from aliquots, sufficient to produce 20% substrate conversion) and a separate solution of FAM-labeled cAMP or FAM-labeled cGMP from Molecular Devices (Sunnyvale, Calif., product # R7506 or cGMP#R7508), at a final concentration of 50 nM were made in the assay buffer (10 mM Tris HCl, pH 7.2, 10 mM MgCl2, 0.05% NaN3 0.01% Tween-20, and 1 mM DTT). Note that the substrate for PDE2 is 50 nM FAM cAMP containing 1000 nM of cGMP. The enzyme and the substrate were then added to the assay plates in two consecutive additions of 10 μL and then shaken to mix. The reaction was allowed to proceed at room temperature for 60 minutes. A binding solution was then made from the kit components, comprised of 80% Solution A, 20% Solution B and binding reagent at a volume of 1/600 the total binding solution. The enzymatic reaction was stopped by addition of 60 μL of the binding solution to each well of the assay plate. The plates were sealed and shaken for 10 seconds. The plates were incubated at room temperature for one hour, then the parallel and perpendicular fluorescence was measured using a Tecan Genios Pro plate reader (Tecan, Switzerland). The apparent inhibition constants for the compounds against all 11 PDE's was determined from the parallel and perpendicular fluorescent readings as described for PDE10 FP assay using the following apparent KM values for each enzyme and substrate combination: PDE1A (FAM cGMP) 70 nM, human PDE2A1 (FAM cAMP) 10,000 nM, PDE3A (FAM cAMP) 50 nM, PDE4A1A (FAM cAMP) 1500 nM, PDE5A1 (FAM cGMP) 400 nM, PDE6C (FAM cGMP) 700 nM, PDE7A (FAM cAMP) 150 nM, PDE8A1 (FAM cAMP) 50 nM, PDE9A2 (FAM cGMP) 60 nM, PDE10A2 (FAM cAMP) 150 nM, PDE11A4 (FAM cAMP) 1000 nM. The intrinsic PDE2 inhibitory activity of a compound which may be used in accordance with the present invention may be determined by these assays.

Sequence of human PDE2A1 (O00408 other isoform, or with tags, fused parts or gaps): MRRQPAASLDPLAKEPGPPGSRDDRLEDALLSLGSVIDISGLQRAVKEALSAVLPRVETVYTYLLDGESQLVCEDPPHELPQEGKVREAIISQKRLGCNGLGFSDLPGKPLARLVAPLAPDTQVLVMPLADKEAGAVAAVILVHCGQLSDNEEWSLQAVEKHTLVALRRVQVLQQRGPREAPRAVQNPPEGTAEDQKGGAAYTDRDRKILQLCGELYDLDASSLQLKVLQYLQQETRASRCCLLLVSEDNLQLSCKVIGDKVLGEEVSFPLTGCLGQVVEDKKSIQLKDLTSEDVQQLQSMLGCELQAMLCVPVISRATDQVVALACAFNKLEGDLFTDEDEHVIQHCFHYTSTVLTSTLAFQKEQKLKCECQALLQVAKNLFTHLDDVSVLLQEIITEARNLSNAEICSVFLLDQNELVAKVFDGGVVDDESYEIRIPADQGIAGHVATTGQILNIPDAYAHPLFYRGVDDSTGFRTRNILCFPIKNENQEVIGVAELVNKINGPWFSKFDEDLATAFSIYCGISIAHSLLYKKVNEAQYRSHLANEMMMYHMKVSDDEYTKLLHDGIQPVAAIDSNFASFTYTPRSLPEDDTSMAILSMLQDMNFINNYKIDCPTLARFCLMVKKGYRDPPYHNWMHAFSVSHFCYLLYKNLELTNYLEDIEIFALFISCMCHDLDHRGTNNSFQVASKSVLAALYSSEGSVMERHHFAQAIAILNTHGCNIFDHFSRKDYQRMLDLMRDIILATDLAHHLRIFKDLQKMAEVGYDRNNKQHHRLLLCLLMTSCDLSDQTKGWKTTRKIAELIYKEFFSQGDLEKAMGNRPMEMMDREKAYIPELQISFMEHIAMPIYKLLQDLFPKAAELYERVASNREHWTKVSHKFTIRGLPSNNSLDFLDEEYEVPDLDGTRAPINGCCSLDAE

With `O=C(NC1(c2ccc(S(F)(F)(F)(F)F)cc2)CC1)c1cc(=O)[nH]c(-c2ncccn2)n1` [Example 570, 6-oxo-N-{1-[4-(pentafluoro-λ^6-sulfanyl)phenyl]cyclopropyl}-1,6-dihydro-2,2′-bipyrimidine-4-carboxamide], the Ki was found to be 21 nM.

With `COc1cc(C(F)(F)F)ccc1C(C)(C)NC(=O)c1cc(=O)[nH]c(-c2ncccn2)n1` [Example 572, N-{1-[2-methoxy-4-(trifluoromethyl)phenyl]-1-methylethyl}-6-oxo-1,6-dihydro-2,2′-bipyrimidine-4-carboxamide], the Ki amounted to 741 nM.

Regarding `CC(NC(=O)c1cc(=O)[nH]c(C2CC2)n1)c1ccc(C(C)(C)C(F)(F)F)cc1` (single isomer, unassigned) [Example 697], the Ki stood at 115 nM.

Consider `Cc1nc(C(=O)NC2(c3ccc(OC(C)(C)C)cc3)CC2)cc(=O)[nH]1` [Example 626, N-[1-(4-tert-butoxyphenyl)cyclopropyl]-2-methyl-6-oxo-1,6-dihydropyrimidine-4-carboxamide], for which the Ki was determined as 58 nM.

On to `CC(NC(=O)c1cc(=O)[nH]c(C2CC2)n1)c1ccc(C(C)(C)C(F)(F)F)cc1` (single isomer, unassigned) [Example 696], for which the Ki is above 2960 nM.

For the compound `Cc1cc(C(F)(F)F)ccc1C(C)(C)NC(=O)c1cc(=O)[nH]c(-c2ncccn2)n1` [Example 569, N-{1-methyl-1-[2-methyl-4-(trifluoromethyl)phenyl]ethyl}-6-oxo-1,6-dihydro-2,2′-bipyrimidine-4-carboxamide], the Ki is 139 nM.

On to `CC1(c2ccc(C(NC(=O)c3cc(=O)[nH]c(C4CC4)n3)C(C)(C)C)cc2F)CC1` (single isomer, unassigned) [Example 713, (R)- or (S)-2-cyclopropyl-N-(1-(3-fluoro-4-(1-methylcyclopropyl)phenyl)-2,2-dimethylpropyl)-6-oxo-1,6-dihydropyrimidine-4-carboxamide], for which the Ki came to 1.5 nM.

`CC(C)(C)[C@@H](NC(=O)c1cc(=O)[nH]c(-c2ncccn2)n1)c1ccc(CC(F)(F)F)cc1` [Example 558, N-[(1R)-2,2-dimethyl-1-[4-(2,2,2-trifluoroethyl)phenyl]propyl}-6-oxo-1,6-dihydro-2,2′-bipyrimidine-4-carboxamide]: the Ki was 35 nM.

For `Cc1nc(C(=O)NC(C)(C)c2ccc3c(c2)OC(F)(F)O3)cc(=O)[nH]1` [Example 604, N-[1-(2,2-difluoro-1,3-benzodioxol-5-yl)-1-methylethyl]-2-methyl-6-oxo-1,6-dihydropyrimidine-4-carboxamide], the inhibition constant (Ki) is 108 nM.

Consider `Cc1nc(C(=O)NC(C)(C)c2ccc(C(F)(F)F)c(Cl)c2)cc(=O)[nH]1` [Example 641, N-{1-[3-chloro-4-(trifluoromethyl)phenyl]-1-methylethyl}-2-methyl-6-oxo-1,6-dihydropyrimidine-4-carboxamide], for which the Ki was found to be 32 nM.

`Cc1nc(C(=O)N[C@@](C)(CO)c2ccc(C(F)(F)F)cc2)cc(=O)[nH]1` [Example 635, N-{(1R)-2-hydroxy-1-methyl-1-[4-(trifluoromethyl)phenyl)ethyl}-2-methyl-6-oxo-1,6-dihydropyrimidine-4-carboxamide]: the Ki worked out at 59 nM.

`CC1([C@@H](NC(=O)c2cc(=O)[nH]c(-c3ccccc3)n2)c2ccc(S(F)(F)(F)(F)F)cc2)CC1` [Example 549, N-{(R)-(1-methylcyclopropyl)[4-(pentafluoro-λ^6-sulfanyl)phenyl]methyl}-6-oxo-2-phenyl-1,6-dihydropyrimidine-4-carboxamide]: the Ki was found to be 4.5 nM.

For the compound `Cc1nc(C(=O)N[C@]2(c3ccc(C(C)C)cc3)C[C@H]2C)cc(=O)[nH]1` (single isomer, unassigned) [Example 664, 2-methyl-N-{2-methyl-1-[4-(1-methylethyl)phenyl]cyclopropyl}-6-oxo-1,6-dihydropyrimidine-4-carboxamide], the Ki was around 1570 nM.

On to `Cc1nc(C(=O)N[C@H](C)c2ccc(S(F)(F)(F)(F)F)cc2F)cc(=O)[nH]1` [Example 672, N-(1-(2-fluoro-4-(pentafluorothio)phenyl)ethyl)-2-methyl-6-oxo-1,6-dihydropyrimidine-4-carboxamide], for which the Ki was above 2960 nM.

`Cc1nc(C(=O)N[C@@H](c2ccc(C(F)F)cc2)C2(C)CC2)cc(=O)[nH]1` [Example 645, N-[(R)-[4-(difluoromethyl)phenyl](1-methylcyclopropyl)methyl]-2-methyl-6-oxo-1,6-dihydropyrimidine-4-carboxamide]: the Ki amounted to 25 nM.

Regarding `O=C(N[C@@H]1CCCc2cc(C(F)(F)F)ccc21)c1cc(=O)[nH]c(-c2ccccc2)n1` [Example 552, 6-oxo-2-phenyl-N-[(1R)-6-(trifluoromethyl)-1,2,3,4-tetrahydronaphthalen-1-yl]-1,6-dihydropyrimidine-4-carboxamide], the Ki was found to be 96 nM.

On to `CC(C)(C)[C@@H](NC(=O)c1cc(=O)[nH]c(-c2ncccn2)n1)c1ccc(C(F)(F)F)c(F)c1` [Example 556, N-{(1R)-1-[3-fluoro-4-(trifluoromethyl)phenyl]-2,2-dimethylpropyl}-6-oxo-1,6-dihydro-2,2′-bipyrimidine-4-carboxamide], for which the Ki amounted to 7.7 nM.

Take `CC(NC(=O)c1cc(=O)[nH]c(-c2ncccn2)n1)c1ccc(C2(C(F)(F)F)CC2)cc1` (single isomer, unassigned) [Example 693, (R)- or (S)-6-oxo-2-(pyrimidin-2-yl)-N-(1-(4-(1-(trifluoromethyl)cyclopropyl)phenyl)-ethyl)-1,6-dihydropyrimidine-4-carboxamide]: the Ki amounted to 63 nM.

Consider `CC1(c2ccc(C(NC(=O)c3cc(=O)[nH]c(-c4ncccn4)n3)C(C)(C)C)cc2F)CC1` (single isomer, unassigned) [Example 716, (S)- or (R)-N-(1-(3-fluoro-4-(1-methylcyclopropyl)phenyl)-2,2-dimethylpropyl)-6-oxo-1,6-dihydro-[2,2′-bipyrimidine]-4-carboxamide], for which the Ki is above 2960 nM.

As for `CC[C@@H](NC(=O)c1cc(=O)[nH]c(C)n1)c1ccc(C(F)F)cc1` [Example 652, N-{(1R)-1-[4-(difluoromethyl)phenyl]propyl}-2-methyl-6-oxo-1,6-dihydropyrimidine-4-carboxamide], the Ki amounted to 138 nM.

Regarding `Cc1nc(C(=O)N[C@@H](c2ccc(C(F)F)c(F)c2)C2(C)CC2)cc(=O)[nH]1` [Example 647, N-[(R)-[4-(difluoromethyl)-3-fluorophenyl](1-methylcyclopropyl)methyl]-2-methyl-6-oxo-1,6-dihydropyrimidine-4-carboxamide], the Ki amounted to 52 nM.

As to `CC(C)(C)[C@@H](NC(=O)c1cc(=O)[nH]c(-c2ncccn2)n1)c1ccc(OC(F)F)c(F)c1` [Example 589, N-{(1R)-1-[4-(difluoromethoxy)-3-fluorophenyl]-2,2-dimethylpropyl}-6-oxo-1,6-dihydro-2,2′-bipyrimidine-4-carboxamide], the inhibition constant Ki turned out to be 22 nM.

Take `Cc1nc(C(=O)N[C@](C)(CO)c2ccc(C(F)(F)F)cc2)cc(=O)[nH]1` [Example 636, N-{(1S)-2-hydroxy-1-methyl-1-[4-(trifluoromethyl)phenyl]ethyl}-2-methyl-6-oxo-1,6-dihydropyrimidine-4-carboxamide]: the Ki is 19 nM.

A word on the Ki: it is a measure of affinity in units of concentration, obtained from inhibition or displacement.
